Test results taken from US20210308137A1, “ANTIVIRAL COMPOUNDS AND METHOD FOR TREATING HEPATOTROPIC VIRAL INFECTION, PARTICULARLY HEPATITIS B AND HEPATITIS D” (priority 2020, published 2021).

How the values were obtained:
HBV [1] = experiment: In vitro antiviral IC50 compared with Lamifudine in the same human liver cell line; type: cell-based; conditions: human liver cell line as the host
Source text: The potency difference is significant.

HDV = experiment: Inhibition of HDV infection/replication in HuS-E/2 cells (HDV RNA by real-time PCR); conditions: for HDV RNA levels reduced to (percentage of non-drug-treated control): HuS-E/2 cells, 18 h infection + 48 h; for IC50: Hepatitis delta virus, HuS-E/2, read-out: IC50 (HDV RNA); for HDV replication (in words): HuS-E/2 human hepatocytes
Protocol: HDV genome was measured by RT-PCR and expressed as the percentage of the value for the non-drug-treated controls (NT). Control PCRs were performed for endogenous GAPDH mRNA as the loading control. […] The results are the mean±SD for three independent experiments.
HuS-E/2 cells that retain primary hepatocyte characteristics after prolonged culture were utilized for HDV infection. For HDV infection, HuS-E/2 cells were differentiated with 1% DMSO for 5-7 days, and HDV virus particles were added to infect and replicate in HuS-E/2 cells (MOI=10) as described by Huang et al. (J Virol. 2012 September; 86(17):9443-53. Epub 2012 Jun. 27) The HuS-E/2 cells are useful to assay infectivity of HDV, and screening of anti-HDV agents.
The compounds were added to the medium at the indicated concentration during infection with HDV for 18 h, then the infected cells were incubated in medium containing the compounds for further 48 h. Real-time PCR was performed to detect HDV RNA as an efficiency index of HDV infection.
Total DNA was extracted with a Genomic DNA isolation kit (Nexttec Biotechnologie, Germany). Total RNA was isolated from cultured cells using TRIzol® reagent (Invitrogen). Reverse transcription was performed with the RNA templates, AMV reverse transcriptase (Roche), and oligo-dT primer. The products were subjected to real-time PCR with primer sets of specific genes and SYBR Green PCR Master Mix (Bio-Rad). The primer sets used for HBV DNA and HDV RNA were as described by Huang et al. (J Virol. 2012 September; 86(17):9443-53. Epub 2012 Jun. 27) The results were analyzed with the iCycler iQ real-time PCR detection system (Bio-Rad).
The infected cells were then washed and incubated in medium containing the tested compounds for further 48 h, and real-time PCR was used to detect HDV mRNA as an efficiency index of HDV infection.

HBV [2] = experiment: Inhibition of HBV replication in HepG2.2.15 cells (HBsAg and HBeAg by ELISA, HBV DNA by real-time PCR); type: cell-based, Hepatitis B virus (ayw subtype); conditions: 48 h; for HBeAg levels reduced to (percentage of non-drug-treated control) / HBsAg levels reduced to (percentage of non-drug-treated control) / amount of HBV DNA in culture medium: 10 μM; for HBeAg levels reduced to (percentage of non-drug-treated control) / HBsAg levels reduced to (percentage of non-drug-treated control): culture medium; for HBeAg levels reduced to (percentage of non-drug-treated control) / HBsAg levels reduced to (percentage of non-drug-treated control) / levels of HBeAg in the culture supernatant (in words) / levels of HBsAg in the culture supernatant (in words) / IC50: ELISA; for amount of HBV DNA in culture medium: untreated cells 3.43*10^5 copies/ml; for levels of HBeAg in the culture supernatant (in words) / levels of HBsAg in the culture supernatant (in words) / HBV DNA (in words) / IC50: HepG2.2.15 cells; for HBV DNA (in words): Q-PCR, dose-dependent; for IC50: Hepatitis B virus, estimated
Source text: Plasmid p1.3HBcl, which contains a 1.3-fold HBV genome (ayw subtype), was used as standard in parallel PCR reactions. The results are expressed as a percentage of the non-drug-treated positive control (NT) and are shown as mean±SD for three independent experiments.
Continuous HBV proliferation can be achieved in HepG2.2.15 cells (RRID:CVCL_L855) stably transfected with the HBV genome of the ayw subtype. HepG2.2.15 cells were maintained in Dulbecco's modified Eagle medium (DMEM; Invitrogen) supplemented with 10% heat-inactivated fetal bovine serum (FBS; Thermo) plus 100 units of penicillin and 100 μg of streptomycin per ml (both from Invitrogen).
The viruses were then collected from the supernatant. Q-PCR was used to detect HBV DNA as an index of efficiency of HBV replication. Next, the HBV HBsAg and HBeAg were examined by ELISA assay.
The culture medium from compound-treated HepG2.2.15 cells was clarified by centrifugation at 1,000×g at 4° C. for 10 min, and then the supernatant was layered on top of a 20% sucrose cushion (20% sucrose, 20 mM HEPES, pH 7.4, 0.1% bovine serum albumin [BSA]) and centrifuged at 197,000×g for 3 h at 4° C. to pellet the HBV particles. The particles were then concentrated 100 fold to detect HBV DNA.
Q-PCR was performed to detect HBV DNA as an efficiency index of HBV replication. Moreover, the HBV HBsAg and HBeAg were examined by ELISA assay.

[3] = Cell viability MTT assay in Vero E6 cells; type: cell-based; conditions: African green monkey
Protocol: (§1) HepG2.2.15 and HuS-E/2 cells were seeded at 1×10^4 cells/well in a 96-well plate for 20 h, then the cells were treated with the tested compounds at various concentration (0-500 μM) for 48 h. After the treatment, cell viability was examined using MTT [3-(4,5-dimethylthiazol-2-yl)-2,5-diphenyl tetrazolium bromide] assay (Sigma Chemical Co.). Briefly, a final concentration of 0.5 mg/ml MTT was added to each well and the samples were incubated for 1 h at 37° C., and then the supernatant was aspirated. The MTT-formazan crystals formed by metabolically viable cells were dissolved in 70 μl of DMSO, and the absorbance at 550 nm was measured on a microplate reader.
(§2) The compounds used were SH-001, SH-002, and SH-003. Before testing their potential antiviral effect on HBV and HDV infection, we first examined their toxicity on VeroE6 cells, HepG2.2.15 cells and HuS-E/2 immortalized human primary hepatocytes cells at concentration from 0 to 320 μM as indicated.

[4] = Cell viability MTT assay in HepG2.2.15 cells; type: cell-based; conditions: human, 0-320 μM
Protocol: as §1, §2

[5] = Cell viability MTT assay in HuS-E/2 cells; type: cell-based; conditions: human
Protocol: as §1, §2

Row | SMILES | IC50 (HDV) [µM] | HDV replication (in words) (HDV) | HBeAg levels reduced to (percentage of non-drug-treated control) (HBV [2]) [%] | HBsAg levels reduced to (percentage of non-drug-treated control) (HBV [2]) [%] | amount of HBV DNA in culture medium (HBV [2]) | levels of HBeAg in the culture supernatant (in words) (HBV [2]) | levels of HBsAg in the culture supernatant (in words) (HBV [2]) | HBV DNA (in words) (HBV [2]) | IC50 (HBV [2]; read-out: IC50 (HBeAg)) [µM] | IC50 (HBV [2]; read-out: IC50 (HBsAg)) [µM] | IC50 (HBV [1]; Hepatitis B virus) [µM] | CC50 at 48 h [4] [µM] | CC50 at 48 h [3] [µM] | also measured
1 | Nc1ccn([C@@H]2CS[C@H](CO)O2)c(=O)n1 [Lamifudine, reference compound] |  |  |  |  |  |  |  |  |  |  |  |  |  | IC50 (HBV [1]): 0.358 µM
2 | O=C(O)c1ccc2c(c1)nc(Nc1cccc(Cl)c1)c1ccncc12 [SH-001, Silmitasertib] | ~0.146 | significantly inhibited | 53.66±3.02 | 39.85±1.78 | 5.51*10^4 copies/ml | significantly decreased | significantly decreased | repressed | 12 | 6.63 | ≥ 0.005 | > 195 |  | HDV RNA levels reduced to (percentage of non-drug-treated control) (HDV; 2.5 μM): 28.8±22.8%; HDV RNA levels reduced to (percentage of non-drug-treated control) (HDV; 5 μM): 8.7±1.3%; CC50 at 48 h ([3]; VeroE6 cells, 48 h, MTT, 0-320 μM, read-out: CC50): > 205 µM; CC50 at 48 h ([5]; HuS-E/2 cells, 48 h, MTT, 0-320 μM, read-out: CC50): > 195 µM
3 | O=C1NC(=O)/C(=C/c2cnn3c(NC4CC4)cc(Nc4cc(Cl)ccc4F)nc23)N1 [SH-002] | ~0.069 | significantly inhibited | 61.18±6.43 | 52.01±3.05 | 3.13*10^4 copies/ml | significantly decreased | significantly decreased | repressed | 168 | 11.8 | ≥ 0.005 | > 164 | > 61.3 | HDV RNA levels reduced to (percentage of non-drug-treated control) (HDV; 0.1 μM): 53.1±16.8%; HDV RNA levels reduced to (percentage of non-drug-treated control) (HDV; 0.2 μM): 40.8±18.6%; CC50 at 48 h [5]: > 164 µM
4 | CC(N)C(=O)OCN1C(=O)N/C(=C\c2cnn3c(NC4CC4)cc(Nc4cc(Cl)ccc4F)nc23)C1=O (stereo not shown) [SH-003] |  |  |  |  |  |  |  |  |  |  |  |  | > 205 | 
